Laboratory results from publication PMC3287010, “Pharmacokinetic Study of Di-Phenyl-Di-(2,4-Difluobenzohydroxamato)Tin(IV): Novel Metal-Based Complex with Promising Antitumor Potential” (Bioinorganic Chemistry and Applications, 2012).

Columns and labels:
[1] = Stability of DPDFT in rat plasma QC samples (freeze/thaw, storage, autosampler); format: in vitro ADME
Description: Quality control (QC) samples were used to determine the accuracy and precision of method and were independently prepared at low (0.8 μg·mL^−1), medium (4 μg·mL^−1), and high (20 μg·mL^−1) concentrations. To evaluate the accuracy and precision, we used at least five QC samples of three different concentrations of DPDFT. The intraday and interday accuracies were expressed as the percentage difference between the measured concentration and the nominal concentration in rat plasma. The intraday precision and accuracy were calculated using replicate (n = 6) determinations for each concentration of the spiked plasma sample during a single analytical run. The interassay precision and accuracy were calculated using replicate (n = 6) determinations of each concentration made on three separate days. The variability of determination was expressed as the relative standard deviation (RSD) which should be ≤15%, covering the range of actual experimental concentrations.
The stability of DPDFT in rat plasma was assessed by analyzing replicates (n = 6) of QC samples at concentrations of 0.8, 4, 20 μg·mL^−1, respectively. The investigation covered the expected conditions during all of the sample storage and process periods, which included the stability data from freeze/thaw cycle and long-term stability tests. The concentrations obtained from stability studies were compared with the freshly prepared QC samples, and the percentage concentration deviation was calculated. In each freeze–thaw cycle, the samples were frozen and stored at −20°C for 10 days, then thawed at room temperature. The stability of the fresh plasma samples was tested after keeping the samples at […], −20°C and room temperature for 72 h. The stability of deproteinized samples at 10°C in the autosampler was evaluated up to 24 h.

[2] = Pharmacokinetic study in rats after single intravenous administration (HPLC-UV plasma determination, two-compartment model, 3p97 software); format: in vivo, Wistar albino rats; set-up: AUC / CL(s): unit not given here; conditions: for A / B / CL(s) / K 10 (first order elimination from compartment 1) / K 12 (first order transfer from compartment 1 to compartment 2) / K 21 (first order transfer from compartment 2 to compartment 1) / V d / t 1/2a (distribution half-life) / t 1/2β (elimination half-life) / β: mean ± SD, n = 6
Description: Laboratory bred adult Wistar albino rats (200–250 g), which were supplied by the Animal Research Center at Shanxi Medical University (Taiyuan, Shanxi Province, China), were housed at 25 ± 2°C in a well-ventilated animal house under 12 : 12 h light dark cycle. The animals drank sterilized drinking water, and standard chow diet was supplied ad libitum to each cage. The animal experiments were performed in accordance with the ARVO Statement for the Use of Animals in Ophthalmic and Vision Research and were approved by the Animal Ethics Committee of Shanxi Medical University.
HPLC analysis was carried out using a Waters 2695 HPLC system (Waters Associates, Milford, MA) which consisted of a photodiode array detector, an autosampler, and a degasser. The apparatus was interfaced to a DELL PC compatible computer using Empower Pro software for data acquisition. The sensitivity was 0.2 AUFS. The autosampler was cooled to 10°C. The column was maintained at room temperature. Chromatographic separation of DPDFT and the I.S. was achieved on a Diamonsil C18 column (250 mm × 4.6 mm, 5 μm) from Dikma Technologies (Beijing, China) protected by a SHIMADZU LC guard column at 25°C. The mobile phase for HPLC analysis consisted of phosphoric acid in water (solvent A)/methanol (solvent B) (30 : 70, V/V, pH 3.0) with a flow rate of 0.8 mL·min^−1. A sample volume of 20 μL was injected. Prior to use, the mobile phase was filtered through a 0.45 μm hydrophilic membrane filter. The photodiode array detector was set at a wavelength of 228 nm at room temperature. Under the chromatographic condition mentioned above, DPDFT and the I.S. acetanilide could be separated completely in the chromatograms (R > 1.5), and there was no endogenous interference with the chromatographic peak of DPDFT and the I.S.acetanilide. Besides, the retention time of acetanilide (t R = 15.67 min) was very suitable as the I.S. compared to that of DPDFT (t R = 8.34 min).
Blood samples collected from rat blood plasma were immediately transferred to 1.5 mL heparinized microcentrifuge tubes from fossa orbitalis of rats, and then processed for plasma by centrifugation. The supernatant plasma (0.2 mL) was then vortex-mixed with methanol (0.4 mL) containing acetanilide (0.2 mL, 50.0 μg·mL^−1) as internal standard (I.S.) for 30 s. After vortex-mixing, the mixture was centrifuged at 13000 rpm for 10 min 4°C to separate precipitated proteins. The supernatant solution of methanol layer was filtered through a 0.45 μm membrane filter. Twenty microliters of filtrate were injected into the chromatography. The same sample processing was also applied to the recovery and to the precision study in plasma. All harvested samples stored at −4°C were brought to room temperature before use and analyzed within one week.
To evaluate the suitability of the assay for pharmacokinetic studies, 7.5, 15, and 30 mg·kg^−1 of DPDFT were intravenously administered to rats (half males and half females, resp.). Six animals were used in each dosage by direct injection into a lateral tail vein, with a duration of infusion less than 1 min. Heparinized blood samples (0.5 mL) were collected at 0, 1, 3, 5, 10, 30, 60, and 120 min after injection. […]. After each sampling, the removed volume of blood was supplemented with an equal volume of sodium chloride. The blood samples were immediately centrifuged and the resulting plasma was prepared according to the procedure given for the calibrators. Pharmacokinetic calculations were performed using the observed data. […] All values obtained were expressed in mean ± standard deviation.

[3] = Stability of stock solution stored at 4°C; format: physicochemical; conditions: stock solution in methanol
Description: A stock solution of DPDFT was prepared in methanol at the concentration of 100 mg·mL^−1 and was further diluted in HPLC mobile phase to make working standards. The I.S. stock solution was prepared and diluted to 50.0 μg·mL^−1 working solution with HPLC mobile phase. All the stock solutions were maintained at 4°C until use.
Stability of DPDFT during storage and processing was checked using quality control samples. The DPDFT and I.S. stock solutions were stable for at least 2 months when stored at 4°C. The deviation of the mean test responses was within ±10% of appropriate controls in all stability tests of DPDFT in rat plasma. After three freeze-thaw cycles, the concentration changes of DPDFT were less than 7%. The analyte was stable in the matrices at 4, −20°C and room temperature for 72 h without significant degradation (<8%).

[4] = Stability of DPDFT in rat plasma QC samples (freeze/thaw, storage, autosampler); format: in vitro ADME; conditions: 72 h at 4°C
[5] = rats, i.v., 15 mg·kg^−1 (middle)
[6] = rats, i.v., 7.5, 15, and 30 mg·kg^−1

O=C(N[O][Sn]([O]NC(=O)c1ccc(F)cc1F)([c]1ccccc1)[c]1ccccc1)c1ccc(F)cc1F [DPDFT, Di-phenyl-di-(2,4-difluobenzohydroxamato)tin(IV)]
deviation of the mean test responses from appropriate controls ([1]; all stability tests in rat plasma): ≤ 10% | run-time stability (concentration change) ([1]; deproteinized rat plasma, 10°C for up to 24 h): < 6% | Accuracy = [(Cobs − Cnom)/Cnom] × 100 ([1]; deproteinized rat plasma, autosampler 24 h at 10°C, nominal 0.8 μg·mL^−1): 3.75% | Observed concentration ± SD ([1]; deproteinized rat plasma, autosampler 24 h at 10°C, nominal 0.8 μg·mL^−1, n = 6): 0.83 ± 0.04 µg/mL | Accuracy = [(Cobs − Cnom)/Cnom] × 100 ([1]; deproteinized rat plasma, autosampler 24 h at 10°C, nominal 4 μg·mL^−1): −4.25% | Observed concentration ± SD ([1]; deproteinized rat plasma, autosampler 24 h at 10°C, nominal 4 μg·mL^−1, n = 6): 3.83 ± 0.18 µg/mL | Accuracy = [(Cobs − Cnom)/Cnom] × 100 ([1]; deproteinized rat plasma, autosampler 24 h at 10°C, nominal 20 μg·mL^−1): −4.05% | Observed concentration ± SD ([1]; deproteinized rat plasma, autosampler 24 h at 10°C, nominal 20 μg·mL^−1, n = 6): 19.19 ± 1.08 µg/mL | degradation in the matrices ([1]; rat plasma, 4, −20°C and room temperature for 72 h): < 8% | Accuracy = [(Cobs − Cnom)/Cnom] × 100 ([1]; rat plasma, 72 h at 4°C, nominal 0.8 μg·mL^−1): 8.75% | Observed concentration ± SD ([1]; rat plasma, 72 h at 4°C, nominal 0.8 μg·mL^−1, n = 6): 0.87 ± 0.04 µg/mL | Observed concentration ± SD ([1]; rat plasma, 72 h at 4°C, nominal 4 μg·mL^−1, n = 6): 3.70 ± 0.16 µg/mL | Accuracy = [(Cobs − Cnom)/Cnom] × 100 ([1]; rat plasma, 72 h at 4°C, nominal 20 μg·mL^−1): 5.70% | Accuracy = [(Cobs − Cnom)/Cnom] × 100 ([1]; rat plasma, 72 h at room temperature, nominal 0.8 μg·mL^−1): −2.50% | Observed concentration ± SD ([1]; rat plasma, 72 h at room temperature, nominal 0.8 μg·mL^−1, n = 6): 0.78 ± 0.05 µg/mL | Accuracy = [(Cobs − Cnom)/Cnom] × 100 ([1]; rat plasma, 72 h at room temperature, nominal 4 μg·mL^−1): −3.25% | Observed concentration ± SD ([1]; rat plasma, 72 h at room temperature, nominal 4 μg·mL^−1, n = 6): 3.87 ± 0.19 µg/mL | Observed concentration ± SD ([1]; rat plasma, 72 h at room temperature, nominal 20 μg·mL^−1, n = 6): 19.46 ± 1.19 µg/mL | Accuracy = [(Cobs − Cnom)/Cnom] × 100 ([1]; rat plasma, 72 h at −20°C, nominal 0.8 μg·mL^−1): −7.50% | Observed concentration ± SD ([1]; rat plasma, 72 h at −20°C, nominal 0.8 μg·mL^−1, n = 6): 0.74 ± 0.05 µg/mL | Accuracy = [(Cobs − Cnom)/Cnom] × 100 ([1]; rat plasma, 72 h at −20°C, nominal 4 μg·mL^−1): 5.50% | Observed concentration ± SD ([1]; rat plasma, 72 h at −20°C, nominal 4 μg·mL^−1, n = 6): 4.22 ± 0.12 µg/mL | Accuracy = [(Cobs − Cnom)/Cnom] × 100 ([1]; rat plasma, 72 h at −20°C, nominal 20 μg·mL^−1): −4.35% | Observed concentration ± SD ([1]; rat plasma, 72 h at −20°C, nominal 20 μg·mL^−1, n = 6): 19.13 ± 1.53 µg/mL | concentration changes after three freeze-thaw cycles ([1]; rat plasma, frozen at −20°C, thawed at room temperature): less than 7% | Accuracy = [(Cobs − Cnom)/Cnom] × 100 ([1]; rat plasma, three freeze and thaw cycles, nominal 0.8 μg·mL^−1): −5.00% | Observed concentration ± SD ([1]; rat plasma, three freeze and thaw cycles, nominal 0.8 μg·mL^−1, n = 6): 0.76 ± 0.05 µg/mL | Accuracy = [(Cobs − Cnom)/Cnom] × 100 ([1]; rat plasma, three freeze and thaw cycles, nominal 4 μg·mL^−1): −5.25% | Observed concentration ± SD ([1]; rat plasma, three freeze and thaw cycles, nominal 4 μg·mL^−1, n = 6): 3.79 ± 0.13 µg/mL | Accuracy = [(Cobs − Cnom)/Cnom] × 100 ([1]; rat plasma, three freeze and thaw cycles, nominal 20 μg·mL^−1): −5.15% | Observed concentration ± SD ([1]; rat plasma, three freeze and thaw cycles, nominal 20 μg·mL^−1, n = 6): 18.97 ± 1.17 µg/mL | DPDFT concentration in blood sample ([2]; collected at 3 min after administration of 15 mg·kg^−1, i.v.): 2.4 µg/mL | A ([2]; rats, i.v., 7.5 mg·kg^−1 (low)): 2.21 ± 0.03 min⁻¹ | B ([2]; rats, i.v., 7.5 mg·kg^−1 (low)): 0.15 ± 0.04 mg/kg | CL(s) ([2]; rats, i.v., 7.5 mg·kg^−1 (low)): 0.66 ± 0.05 | K 10 (first order elimination from compartment 1) ([2]; rats, i.v., 7.5 mg·kg^−1 (low)): 0.32 ± 0.05 min⁻¹ | K 12 (first order transfer from compartment 1 to compartment 2) ([2]; rats, i.v., 7.5 mg·kg^−1 (low)): 0.26 ± 0.04 min⁻¹ | K 21 (first order transfer from compartment 2 to compartment 1) ([2]; rats, i.v., 7.5 mg·kg^−1 (low)): 0.08 ± 0.004 min⁻¹ | V d ([2]; rats, i.v., 7.5 mg·kg^−1 (low)): 2.13 ± 0.07 L/kg | t 1/2a (distribution half-life) ([2]; rats, i.v., 7.5 mg·kg^−1 (low)): 1.04 ± 0.01 min | t 1/2β (elimination half-life) ([2]; rats, i.v., 7.5 mg·kg^−1 (low)): 17.68 ± 2.6 min | β ([2]; rats, i.v., 7.5 mg·kg^−1 (low)): 0.04 ± 0.003 min⁻¹ | A [2, 5]: 7.94 ± 3.12 min⁻¹ | B [2, 5]: 0.92 ± 0.04 mg/kg | CL(s) [2, 5]: 0.27 ± 0.02 | K 10 (first order elimination from compartment 1) [2, 5]: 0.24 ± 0.08 min⁻¹ | K 12 (first order transfer from compartment 1 to compartment 2) [2, 5]: 0.38 ± 0.01 min⁻¹ | K 21 (first order transfer from compartment 2 to compartment 1) [2, 5]: 0.11 ± 0.01 min⁻¹ | V d [2, 5]: 1.13 ± 0.08 L/kg | t 1/2a (distribution half-life) [2, 5]: 1.01 ± 0.01 min | t 1/2β (elimination half-life) [2, 5]: 19.38 ± 3.6 min | β [2, 5]: 0.04 ± 0.003 min⁻¹ | A ([2]; rats, i.v., 30 mg·kg^−1 (high)): 22.36 ± 8.12 min⁻¹ | B ([2]; rats, i.v., 30 mg·kg^−1 (high)): 1.85 ± 0.44 mg/kg | K 10 (first order elimination from compartment 1) ([2]; rats, i.v., 30 mg·kg^−1 (high)): 0.30 ± 0.18 min⁻¹ | K 12 (first order transfer from compartment 1 to compartment 2) ([2]; rats, i.v., 30 mg·kg^−1 (high)): 0.28 ± 0.11 min⁻¹ | K 21 (first order transfer from compartment 2 to compartment 1) ([2]; rats, i.v., 30 mg·kg^−1 (high)): 0.09 ± 0.01 min⁻¹ | V d ([2]; rats, i.v., 30 mg·kg^−1 (high)): 0.62 ± 0.08 L/kg | t 1/2a (distribution half-life) ([2]; rats, i.v., 30 mg·kg^−1 (high)): 1.12 ± 0.1 min | t 1/2β (elimination half-life) ([2]; rats, i.v., 30 mg·kg^−1 (high)): 16.81 ± 3.6 min | β ([2]; rats, i.v., 30 mg·kg^−1 (high)): 0.04 ± 0.003 min⁻¹ | compartment model fitted to concentration-time data [2, 6]: two-compartment model | difference in pharmacokinetic parameters between male and female rats [2, 6]: no significant differences | dose linearity of pharmacokinetics ([2]; rats, i.v., from 7.5 to 30 mg/kg): nonlinear process | time stock solution was stable [3]: at least 2 months | Accuracy = [(Cobs − Cnom)/Cnom] × 100 ([4]; nominal 4 μg·mL^−1): −7.50% | Observed concentration ± SD ([4]; nominal 20 μg·mL^−1, n = 6): 21.14 ± 1.27 µg/mL
